What was measured:
[1] = molecular target: T1, interaction between SBP-Tag and Streptavidin (Streptomyces avidinii, UniProt P22629, L133T/T100R/V149R/V79T); test: RUSH^L[ID]: release of SBP-tagged reporters from the hook Ii-Core streptavidin, by immunofluorescence and time-lapse imaging; type: cell-based, human
T1 construct: expressed in transfected cells; host or cells: HeLa cells, transient transfection of the hook-IRES-reporter plasmid
Method: The Reporter ST-SBP-GFP is retained in the ER in cells expressing the hook Ii-Core streptavidin. Biotin is added at time 00:00 (min sec) and the release of the reporter is followed by time-lapse fluorescent imaging using a spinning disk equipped confocal microscope at 37° C. The Reporter starts to be visible in the Golgi apparatus in a very short time (9:30) and labels massively the Golgi apparatus by 30 minutes.
The Reporter SBP-GFP-Ecadherin is retained in the ER in cells expressing the hook Ii-Core streptavidin. Biotin is added at time 00:00 (min:sec) and the release of the reporter is followed by time-lapse fluorescent imaging using a spinning disk equipped confocal microscope at 37° C. The Reporter is visualized using GFP as a detection domain. Significant quantities of the reporter are visible in the Golgi apparatus from 03:30 and continue to increase. The reporter starts to be visible at the plasma membrane around 30:00. Note that transport intermediates (in the form of punctuate staining) are visible at early (ER to Golgi) and late (Golgi to plasma membrane) time points.
(§1) Hela cells were grown at 37° C. in DMEM (Invitrogen) supplemented with L-glutamine, Sodium Pyruvate and 10% Fetal Calf Serum. For transient transfection, cells were plated on coverslips in 150-mm culture dishes and transfected with 25 μg of the plasmid hook-IRES-reporter using the calcium phosphate precipitation method, in presence of 25 mM HEPES. After 4 hours, cells were washed out with fresh medium and incubated overnight in presence of 3.1 nM Rapamycin (Sigma). Then cells were washed out 3 times with medium, and incubated in prewarmed medium with 3.3 μM FK506 (Cayman) and […] cycloheximide (CHX) for several time points. For each time point, 1 mL of medium containing FK506 and CHX was added into a well of a 12-well plate. Then cells were fixed with 4% PAF and processed for fluorescent microscopy. In the streptavidin/SBP set-up, transfection is done similarly but no addition is done when washing the cells after transfection. After 1-hours, biotin (10 μM) is added to induce reporter release. Then cells are then processed as in the MD set-up.
Cells were fixed in paraformaldehyde 3% for 15 min, washed in PBS (Phosphate Buffer Saline) and free aldehydes were quenched in NH4Cl 50 mM for 5 min. Cells were then permeabilized in PBS containing Bovine Serum Albumine (BSA 0.5%) and Saponine (Sapo 0.05%) [PBS/BSA/Sapo] for 20 min and incubated with primary antibodies (human anti-Giantin, Nizak et al. 2003, Moutel et al., 2009) in the same buffer for 30 min Cells were washed in PBS and incubated in PBS/BSA/Sapo with fluorescently labelled secondary antibodies (Jackson Immunoresearch) for 20 min Nuclei were counter-stained with DAPI (4′,6-Diamidino-2-phenylindole, Sigma-Aldrich). Cells were finally washed in PBS before being mounted in Mowiol (Sigma-Aldrich) and observed by fluorescent microscopy.
A hook was constructed using the ER localized Ii33 fused to monomeric Streptavidin (SEQ ID NO:3) (FRAP of the construct from Example 1 is replaced by monomeric Streptavidin). The reporter was the Golgi localization domain of Sialyl Transferase as used in Example 1. The Hook and reporter were co-expressed in cells and the two domains, streptavidin and SBP-tag interact by default, preventing ST transport to the Golgi apparatus. Release of ST was achieved using moderate concentration of free biotin (around 1-10 μM).

[2] = molecular target: T2, interaction between SBP and core streptavidin (Streptomyces avidinii, UniProt P22629); test: RUSH^C[ID]: release of the reporter TMD22 from the hook TMD17-streptavidin; type: cell-based, human; settings: upon biotin addition; cytoplasmic topology
T2 construct: the FRAP domain is replaced by Core streptavidin which was amplified by PCR; expressed in transfected cells; host or cells: HeLa cells, transient transfection of the hook-IRES-reporter plasmid
Method: as §1
Cells were fixed in paraformaldehyde 3% for 15 min, washed in PBS (Phosphate Buffer Saline) and free aldehydes were quenched in NH4Cl 50 mM for 5 min. […]

[3] = upon biotin addition, surface anti-GFP

T1 sequence (P22629 25-183 V79T/T100R/L133T/V149R limits assumed): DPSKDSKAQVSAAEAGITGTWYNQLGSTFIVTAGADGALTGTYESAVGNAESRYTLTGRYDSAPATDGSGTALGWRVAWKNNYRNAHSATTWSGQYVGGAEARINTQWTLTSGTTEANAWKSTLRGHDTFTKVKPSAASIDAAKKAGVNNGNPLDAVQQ
T2 sequence (P22629 with tags, fused parts or gaps): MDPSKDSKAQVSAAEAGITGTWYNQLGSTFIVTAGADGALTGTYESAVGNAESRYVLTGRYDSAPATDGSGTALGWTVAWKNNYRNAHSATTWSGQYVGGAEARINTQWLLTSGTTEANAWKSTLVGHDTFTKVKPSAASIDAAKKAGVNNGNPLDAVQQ

For `O=C(O)CCCC[C@@H]1SC[C@@H]2NC(=O)N[C@@H]21` [Biotin, D-Biotin], the “time by which reporter labels massively the Golgi apparatus” value ([1]; reporter ST-SBP-GFP, biotin added at 00:00, 37° C.) was at most 30 min, the “concentration of free biotin achieving release of ST” value ([1]; reporter ST, hook Ii33-Streptavidin) was 1 to 10 µM and the “release of reporters ST-SBP-GFP and ManII-SBP-mCherry to the Golgi apparatus” value ([1]; upon addition of biotin) was “they both reach the Golgi apparatus”. For the same compound, the “release of reporter SBP-GFP-Ecadherin to the plasma membrane” value [1, 3] was “the reporter is released and reaches its target plasma membrane compartment”, the “release of reporter SBP-GFP-VSV-G to the plasma membrane” value [1, 3] was “the reporter is released and reaches its target plasma membrane compartment” and the “release of reporter TMD22 toward the plasma membrane” value [2] was “release was observed”.

From patent US20120149101A1, “METHODS AND KITS FOR REGULATING INTRACELLULAR TRAFFICKING OF A TARGET PROTEIN” (INSTITUT CURIE, priority 2009, published 2012)
